Data reported in patent US9938257B2 (Sunshine Lake Pharma Co., Ltd., priority 2015, dated 2018).

Experiments:
[1] = Compound stability in human liver microsomes; assay type: in vitro ADME; settings: pH 7.4; for half-life at 5 μM: human liver microsomes 0.5 mg protein/mL, compound 5 μM, NADPH 1.0 mM, 37° C., read-out: Human T1/2; for CLint scaled at 5 μM: human liver microsomes, in vivo CLint extrapolated
Protocol: (§1) Human or rat liver microsomes incubations were conducted in duplicate in polypropylene tubes. The typical incubation mixtures consisted of human or rat liver microsomes (0.5 mg protein/mL), compounds of interest (5 μM) and NADPH (1.0 mM) in a total volume of 200 μL potassium phosphate buffer (PBS, 100 mM, pH 7.4). Compounds were dissolved in DMSO and diluted with PBS such that the final concentration of DMSO was 0.05%. The enzymatic reactions were commenced with the addition of protein after a 3-min preincubation and incubated in a water bath open to the air at 37° C. Reactions were terminated at various time points (0, 5, 10, 15, 30, 60 min) by adding equal volume of ice-cold acetonitrile. The samples were stored at −80° C. until LC/MS/MS assays.
(§2) The concentrations of compounds in the incubation mixtures of human or rat liver microsomes were determined by a LC/MS/MS method. The ranges of the linearity in the concentration range were determined for each tested compounds.
(§3) A parallel incubation was performed using denatured microsomes as the negative control, and reactions were terminated at various time points (0, 15, 60 min) after incubation at 37° C.
(§4) Dextromethorphan (70 μM) was selected as the positive control, and reactions were terminated at various time points (0, 5, 10, 15, 30, 60 min) after incubation at 37° C. Both positive and negative control samples were included in each assay to ensure the integrity of the microsomal incubation system.
(§5) The concentrations of compounds in human or rat liver microsome incubations were plotted as a percentage of the relevant zero time point control for each reaction. The in vivo CLint were extrapolated (ref.: Naritomi, Y.; Terashita, S.; Kimura, S.; Suzuki, A.; Kagayama, A.; and Sugiyama, Y.; Prediction of human hepatic clearance from in vivo animal experiments and in vitro metabolic studies with liver microsomes from animals and humans. Drug Metab. Dispos., 2001, 29: 1316-1324).

[2] = Compound stability in rat liver microsomes; assay type: in vitro ADME; settings: pH 7.4; for half-life at 5 μM: rat liver microsomes 0.5 mg protein/mL, compound 5 μM, NADPH 1.0 mM, 37° C., read-out: Rat T1/2; for CLint scaled at 5 μM: rat liver microsomes, in vivo CLint extrapolated
Protocol: as §1, §2, §3, §4, §5

[3] = Pharmacokinetics after intravenous and oral administration in rats; assay type: in vivo; settings: for Clearance (CL) after iv dosing / AUC(0-t) / half-life / Vd: dose 1 mg/kg, iv dosing; for F: oral bioavailability, iv dose 1 mg/kg; for AUC(0-t) / half-life / Vd: rat, plasma; for Vd: read-out: Vss
Protocol: The compounds disclosed herein are assessed in pharmacokinetic studies in mice, rats, dogs or monkeys. The compounds are administered as a water solution, 2% HPMC+1% TWEEN®80 in water solution, 5% DMSO+5% solutol in saline, 4% MC suspension or capsule. For the intravenous administration, the animals are generally given at 0.5, 1 or 2 mg/kg dose. For the oral (p.o.) dosing, mice and rats are generally given 0.5, 1, 5 or 10 mg/kg dose, and dogs and monkeys are generally given 10 mg/kg dose. The blood samples (0.3 mL) are drawn at 0.25, 0.5, 1.0, 2.0, 3.0, 4.0, 6.0, 8.0, 12 and 24 h time points or 0.083, 0.25, 0.5, 1.0, 2.0, 4.0, 6.0, 8.0 and 24 h time points and centrifuged at 3,000 or 4000 rpm for 2 to 10 min. The plasma solutions are collected, and stored at −20° C. or −70° C. until analyzed by LC/MS/MS as described above.

JAK1 (h) = JAK1 (h) (Homo sapiens (Human), UniProt P23458); assay: JAK1 (h) kinase activity assay; assay type: biochemical
JAK1 (h), sequence (P23458 whole entry): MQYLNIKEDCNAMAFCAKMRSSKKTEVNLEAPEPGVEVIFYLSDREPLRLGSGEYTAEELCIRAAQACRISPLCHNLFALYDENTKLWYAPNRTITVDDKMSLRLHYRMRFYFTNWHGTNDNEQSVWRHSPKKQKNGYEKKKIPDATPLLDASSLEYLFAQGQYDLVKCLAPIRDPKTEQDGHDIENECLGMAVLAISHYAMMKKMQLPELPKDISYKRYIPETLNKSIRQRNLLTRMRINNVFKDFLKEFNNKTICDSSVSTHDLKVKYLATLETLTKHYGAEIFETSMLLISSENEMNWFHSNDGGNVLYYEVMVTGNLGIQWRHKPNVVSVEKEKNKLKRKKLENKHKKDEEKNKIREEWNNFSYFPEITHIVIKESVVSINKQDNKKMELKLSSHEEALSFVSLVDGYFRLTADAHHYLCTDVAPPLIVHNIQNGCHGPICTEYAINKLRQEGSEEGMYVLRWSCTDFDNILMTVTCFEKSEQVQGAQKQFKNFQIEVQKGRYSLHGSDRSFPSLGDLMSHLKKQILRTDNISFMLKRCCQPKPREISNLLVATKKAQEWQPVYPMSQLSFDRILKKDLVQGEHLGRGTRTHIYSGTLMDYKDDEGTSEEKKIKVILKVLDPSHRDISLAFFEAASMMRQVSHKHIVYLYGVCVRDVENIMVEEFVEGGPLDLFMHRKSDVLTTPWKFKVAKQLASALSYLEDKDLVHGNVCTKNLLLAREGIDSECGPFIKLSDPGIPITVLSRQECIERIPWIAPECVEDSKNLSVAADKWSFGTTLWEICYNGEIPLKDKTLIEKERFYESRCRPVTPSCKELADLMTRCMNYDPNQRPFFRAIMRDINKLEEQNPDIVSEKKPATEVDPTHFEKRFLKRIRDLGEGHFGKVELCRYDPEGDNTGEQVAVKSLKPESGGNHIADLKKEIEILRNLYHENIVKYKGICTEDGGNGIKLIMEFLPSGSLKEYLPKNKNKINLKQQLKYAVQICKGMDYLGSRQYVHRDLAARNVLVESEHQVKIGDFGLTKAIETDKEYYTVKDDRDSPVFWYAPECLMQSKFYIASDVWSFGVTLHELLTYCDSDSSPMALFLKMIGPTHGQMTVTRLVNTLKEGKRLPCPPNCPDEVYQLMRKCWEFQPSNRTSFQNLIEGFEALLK
Protocol: (§6) The above assay procedure can be used to determine the IC50 for inhibition and/or the inhibition constant, Ki. The IC50 is defined as the concentration of compound required to reduce the enzyme activity by 50% under the condition of the assay. The IC50 value is estimated by preparing a 10 point curve using a ½ log dilution series (for example, a typical curve may be prepared using the following compound concentrations: 3 μM, 1 μM, 0.3 μM, 0.1 μM, 0.03 μM, 0.01 μM, 0.003 μM, 0.001 μM, 0.0003 μM and 0 μM).
(§7) JAK1 (h) is incubated with 20 mM Tris/HCl pH 7.5, 0.2 mM EDTA, 500 μM GEEPLYWSFPAKKK, 10 mM MgAcetate and [γ-^33P-ATP] (specific activity approx. 500 cpm/pmol, concentration as required). The reaction is initiated by the addition of the MgATP mix. After incubation for 40 minutes at room temperature, the reaction is stopped by the addition of 3% phosphoric acid solution. 10 μL of the reaction is then spotted onto a P30 filtermat and washed three times for 5 minutes in 75 mM phosphoric acid and once in methanol prior to drying and scintillation counting.
(§8) The kinase assays described herein were performed at Millipore UK Ltd, Dundee Technology Park, Dundee DD2 1SW, UK.

Aurora-A (h) = Aurora-A (h) (Homo sapiens (Human), UniProt O14965); assay: Aurora-A (h) kinase activity assay; assay type: biochemical
Aurora-A (h), sequence (O14965 whole entry): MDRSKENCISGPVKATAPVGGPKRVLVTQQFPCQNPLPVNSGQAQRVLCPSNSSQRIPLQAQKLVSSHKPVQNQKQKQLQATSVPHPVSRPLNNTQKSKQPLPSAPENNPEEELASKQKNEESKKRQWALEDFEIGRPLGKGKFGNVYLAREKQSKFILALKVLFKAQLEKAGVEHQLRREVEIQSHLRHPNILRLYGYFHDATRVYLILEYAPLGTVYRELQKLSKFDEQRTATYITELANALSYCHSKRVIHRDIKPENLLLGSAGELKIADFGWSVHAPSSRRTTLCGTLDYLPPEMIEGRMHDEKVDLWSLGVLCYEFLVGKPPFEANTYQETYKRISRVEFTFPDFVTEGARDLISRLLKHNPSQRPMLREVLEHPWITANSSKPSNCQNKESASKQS
Protocol: as §6
as §7, with “Aurora-A (h)” for “JAK1 (h)”, “with 8” for “with 20”, “mM MOPS” for “mM Tris/HCl”, “pH 7.0,” for “pH 7.5,”, “EDTA, 200” for “EDTA, 500”, “μM LRRASLG (Kemptide),” for “μM GEEPLYWSFPAKKK,”
as §8

half-life at 5 μM [1] [min]	CLint scaled at 5 μM [1] [mL/min/kg]	half-life at 5 μM [2] [min]	CLint scaled at 5 μM [2] [mL/min/kg]	Clearance (CL) after iv dosing [3] [mL/min/kg]	F [3] [%]	AUC(0-t) [3] [ng·h/mL]	half-life [3] [min]	Vd [3] [L/kg]	IC50 (JAK1 (h)) [µM]	IC50 (Aurora-A (h)) [µM]	SMILES
148	11.7	112	22.2	46.2	61.7	360	38.4	1.53	0.01	0.058	CC(=O)N1CC2CC(Nc3nc(Nc4cnn(CC(C)(C)O)c4)ncc3Cl)CC2C1 (stereo not shown) [Ex. 1, 1-(5-((5-chloro-2-((1-(2-hydroxy-2-methylpropyl)-1H-pyrazol-4-yl)amino)pyrimidin-4-yl)amino)hexahydrocyclopenta[c]pyrrol-2(1H)-yl)ethanone]
106	16.4	107	23.3	–	–	–	–	–	0.002	0.028	CC(C)(O)Cn1cc(Nc2ncc(Cl)c(NC3CC4CN(C(=O)CC#N)CC4C3)n2)cn1 (stereo not shown) [Ex. 2, 3-(5-((5-chloro-2-((1-(2-hydroxy-2-methylpropyl)-1H-pyrazol-4-yl)amino)pyrimidin-4-yl)amino)hexahydrocyclopenta[c]pyrrol-2(1H)-yl)-3-oxopropanenitrile]
–	–	–	–	60.2	30.5	278	14.4	0.99	0.012	0.017	Cn1cc(Nc2ncc(Cl)c(NC3CC4CN(C(=O)CC5CC5)CC4C3)n2)cn1 (stereo not shown) [Ex. 12, 1-(5-((5-chloro-2-((1-methyl-1H-pyrazol-4-yl)amino)pyrimidin-4-yl)amino)hexahydrocyclopenta[c]pyrrol-2(1H)-yl)-2-cyclopropylethanone]
33.1	52.5	5.48	454	–	–	–	–	–	–	0.005	Cn1cc(Nc2ncc(Cl)c(NC3CC4CN(S(=O)(=O)C5CC5)CC4C3)n2)cn1 (stereo not shown) [Ex. 13, 5-chloro-N^4-(2-(cyclopropylsulfonyl)octahydrocyclopenta[c]pyrrol-5-yl)-N^2-(1-methyl-1H-pyrazol-4-yl)pyrimidine-2,4-diamine]
44.2	39.4	3.33	745	–	–	–	–	–	0.006	0.021	Cn1cc(Nc2ncc(Cl)c(NC3CC4CN(C(=O)C5CC5)CC4C3)n2)cn1 (stereo not shown) [Ex. 14, (5-((5-chloro-2-((1-methyl-1H-pyrazol-4-yl)amino)pyrimidin-4-yl)amino)hexahydrocyclopenta[c]pyrrol-2(1H)-yl)(cyclopropyl)methanone]
210	8.27	6.28	395	–	–	–	–	–	0.032	–	Cn1cc(Nc2ncc(Cl)c(NC3CC4CN(CC(C)(C)O)CC4C3)n2)cn1 (stereo not shown) [Ex. 16, 1-(5-((5-chloro-2-((1-methyl-1H-pyrazol-4-yl)amino)pyrimidin-4-yl)amino)hexahydrocyclopenta[c]pyrrol-2(1H)-yl)-2-methylpropan-2-ol]
35.7	48.6	7.15	347	54.2	37.3	308	17.4	1.44	–	0.006	Cn1cc(Nc2ncc(Cl)c(NC3CC4CN(S(=O)(=O)CC5CC5)CC4C3)n2)cn1 (stereo not shown) [Ex. 17, 5-chloro-N^4-(2-((cyclopropylmethyl)sulfonyl)octahydrocyclopenta[c]pyrrol-5-yl)-N^2-(1-methyl-1H-pyrazol-4-yl)pyrimidine-2,4-diamine]
24.9	69.8	8.07	308	15.5	268.4	1140	36.6	0.71	–	–	Cn1cc(Nc2ncc(Cl)c(NC3CC4CN(c5ccc(C#N)nn5)CC4C3)n2)cn1 (stereo not shown) [Ex. 30, 6-(5-((5-chloro-2-((1-methyl-1H-pyrazol-4-yl)amino)pyrimidin-4-yl)amino)hexahydrocyclopenta[c]pyrrol-2(1H)-yl)pyridazine-3-carbonitrile]
–	–	–	–	–	–	–	–	–	–	0.05	Cn1cc(Nc2ncc(Cl)c(NC3CC4CN(S(=O)(=O)C(C)(C)C)CC4C3)n2)cn1 (stereo not shown) [Ex. 31, N^4-(2-(tert-butylsulfonyl)octahydrocyclopenta[c]pyrrol-5-yl)-5-chloro-N^2-(1-methyl-1H-pyrazol-4-yl)pyrimidine-2,4-diamine]
–	–	–	–	–	–	–	–	–	–	0.012	O=C(NC1CC1)N1CC2CC(Nc3nc(Nc4cnn(C5CCNC5)c4)ncc3Cl)CC2C1 (stereo not shown) [Ex. 40, 5-((5-chloro-2-((1-(pyrrolidin-3-yl)-1H-pyrazol-4-yl)amino)pyrimidin-4-yl)amino)-N-cyclopropylhexahydrocyclopenta[c]pyrrole-2(1H)-carboxamide]
73.5	23.7	43.7	56.8	–	–	–	–	–	–	0.019	CC(O)Cn1cc(Nc2ncc(Cl)c(NC3CC4CN(C(=O)NC5CC5)CC4C3)n2)cn1 (stereo not shown) [Ex. 41, 5-((5-chloro-2-((1-(2-hydroxypropyl)-1H-pyrazol-4-yl)amino)pyrimidin-4-yl)amino)-N-cyclopropylhexahydrocyclopenta[c]pyrrole-2(1H)-carboxamide]
–	–	–	–	–	–	–	–	–	–	0.009	CC(C)(O)Cn1cc(Nc2ncc(Cl)c(NC3CC4CN(S(=O)(=O)NC5CC5)CC4C3)n2)cn1 (stereo not shown) [Ex. 43, 5-((5-chloro-2-((1-(2-hydroxy-2-methylpropyl)-1H-pyrazol-4-yl)amino)pyrimidin-4-yl)amino)-N-cyclopropylhexahydrocyclopenta[c]pyrrole-2(1H)-sulfonamide]
310	5.6	100	24.8	34.7	40.7	485	43.2	0.81	–	–	CC(=O)N1CC2CC(CC#N)(Nc3nc(Nc4cnn(C)c4)ncc3Cl)CC2C1 (stereo not shown) [Ex. 48, 2-(2-acetyl-5-((5-chloro-2-((1-methyl-1H-pyrazol-4-yl)amino)pyrimidin-4-yl)amino)octahydrocyclopenta[c]pyrrol-5-yl)acetonitrile]
